According to the Kinase Knowledgebase extract (Sharma et al. 2016):

Legend:
[1] = biological target: MAPK14 (UniProt Q16539); assay: Inhibition of p38 Kinase Activity
[2] = test system: MAPK14 (C3H mice); assay: Inhibition of LPS Stimulated TNF Production in C3H Mice; conditions: dose or concentration not given here
[3] = biological target: MAPK14 (human) (UniProt Q16539); assay: Inhibition of TNF Release from Human Peripheral Blood Mononuclear Cells; conditions: pbmc
[4] = biological target: MAPK14 (human) (UniProt Q16539); assay: Inhibition of HFF Cell Proliferation

MAPK14, sequence (Q16539 whole entry, looked up): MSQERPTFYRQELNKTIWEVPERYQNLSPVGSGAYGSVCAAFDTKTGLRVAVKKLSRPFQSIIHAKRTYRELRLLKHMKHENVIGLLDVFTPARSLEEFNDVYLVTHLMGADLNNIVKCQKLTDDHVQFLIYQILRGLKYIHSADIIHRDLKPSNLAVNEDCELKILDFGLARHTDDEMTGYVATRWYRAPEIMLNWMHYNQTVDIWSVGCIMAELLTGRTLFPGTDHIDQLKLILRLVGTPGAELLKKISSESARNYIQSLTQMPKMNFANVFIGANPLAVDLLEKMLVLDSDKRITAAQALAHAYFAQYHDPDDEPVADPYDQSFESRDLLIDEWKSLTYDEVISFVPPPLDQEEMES
MAPK14 (human), sequence (Q16539 whole entry, looked up): as above

| SMILES | IC50 [1] | other results |
| --- | --- | --- |
| Fc1ccc(-c2nn3cc(C(F)(F)F)ccc3c2-c2ccncc2)cc1 | < 500 nM | – |
| Fc1ccc(-c2nn3ccccc3c2-c2ccnc(NC3CC3)n2)cc1 | < 500 nM | – |
| CN(C)CCCNc1nccc(-c2c(-c3ccc(F)c(Cl)c3)nn3cc(C(F)(F)F)ccc23)n1 | 10 to 100 nM | – |
| Nc1nccc(-c2c(-c3ccc(F)cc3)nn3cc(C(F)(F)F)ccc23)n1 | < 500 nM | – |
| CN(C)CCCNc1nccc(-c2c(-c3ccc(F)cc3)nn3cc(C(F)(F)F)ccc23)n1 | 100 to 1000 nM | – |
| NC(=O)c1ccc2c(-c3ccnc(NC4CC4)n3)c(-c3ccc(F)cc3)nn2c1 | < 500 nM | IC50 [3]: < 500 nM; inhibition [2]: 90% |
| Fc1ccc(-c2nn3cc(C(F)(F)F)ccc3c2-c2ccnc(Oc3ccccc3)n2)cc1 | < 500 nM | – |
| CC(C)Nc1nccc(-c2c(-c3ccc(F)cc3)nn3cc(C(F)(F)F)ccc23)n1 | < 500 nM | inhibition [2]: 45% |
| FC(F)(F)c1ccc(-c2nn3cc(C(F)(F)F)ccc3c2-c2ccnc(NCCN3CCCCC3)n2)cc1 | 1000 to 10000 nM | – |
| FC(F)(F)c1ccc2c(-c3ccnc(NCCN4CCCC4)n3)c(-c3cccc(Cl)c3)nn2c1 | 100 to 1000 nM | – |
| Fc1ccc(-c2nn3ccccc3c2-c2ccncn2)cc1 | 500 to 5000 nM | IC50 [4]: > 50000 nM; inhibition [2]: 67% |
| CCN(CC)CCNc1nccc(-c2c(-c3ccc(C(F)(F)F)cc3)nn3cc(C(F)(F)F)ccc23)n1 | 1000 to 10000 nM | – |
| Fc1ccc(-c2nn3cc(C(F)(F)F)ccc3c2-c2ccnc(NCCN3CCCCC3)n2)cc1Cl | 100 to 1000 nM | – |
| OCCCNc1cc(-c2c(-c3ccc(F)cc3)nn3ccccc23)ccn1 | < 500 nM | IC50 [4]: > 50000 nM; inhibition [2]: 45% |
| OCCCNc1nccc(-c2c(-c3ccc(F)cc3)nn3cc(C(F)(F)F)ccc23)n1 | < 500 nM | – |
| CCCN1CCN(CCNc2nccc(-c3c(-c4ccc(C(F)(F)F)cc4)nn4cc(C(F)(F)F)ccc34)n2)CC1 | 1000 to 10000 nM | – |
| Fc1ccc(-c2nn3ccccc3c2-c2ccnc(NCc3ccc(Cl)cc3)c2)cc1 | < 500 nM | IC50 [3]: < 500 nM; inhibition [2]: 42% |
| FC(F)(F)c1ccc2c(-c3ccnc(NCCN4CCCCCC4)n3)c(-c3cccc(Cl)c3)nn2c1 | 100 to 1000 nM | – |

| SMILES | IC50 [1] | other results |
| --- | --- | --- |
| CSc1nccc(-c2c(-c3ccc(F)cc3)nn3ccccc23)n1 | < 500 nM | inhibition [2]: 56% |
| CCCCNc1nccc(-c2c(-c3ccc(F)cc3)nn3ccccc23)n1 | < 500 nM | inhibition [2]: 88% |
| NC(=O)c1ccc2c(-c3ccnc(NCCCN4CCCCC4)n3)c(-c3ccc(F)cc3)nn2c1 | < 500 nM | – |
| FC(F)(F)c1ccc(-c2nn3cc(C(F)(F)F)ccc3c2-c2ccnc(NCCCN3CCCCC3)n2)cc1 | 1000 to 10000 nM | – |
| Fc1ccc(-c2nn3cc(C(F)(F)F)ccc3c2-c2ccnc(NCCN3CCCCCC3)n2)cc1Cl | 100 to 1000 nM | – |
| NC(=O)c1ccc2c(-c3ccnc(NCCCO)n3)c(-c3ccc(F)cc3)nn2c1 | < 500 nM | – |
| Fc1ccc(-c2nn3cc(C(F)(F)F)ccc3c2-c2ccnc(NCCN3CCCC3)n2)cc1Cl | 100 to 1000 nM | – |
| CN1CCN(CCCNc2nccc(-c3c(-c4ccc(F)cc4)nn4cc(C(F)(F)F)ccc34)n2)CC1 | 10 to 100 nM | – |
| OCc1ccn2nc(-c3ccc(F)cc3)c(-c3ccncc3)c2c1 | < 500 nM | – |
| CCCN(CCC)CCNc1nccc(-c2c(-c3cccc(Cl)c3)nn3cc(C(F)(F)F)ccc23)n1 | 100 to 1000 nM | – |
| Nc1nccc(-c2c(-c3ccc(F)cc3)nn3ccccc23)n1 | < 500 nM | inhibition [2]: 62% |
| COc1ccn2nc(-c3ccc(F)cc3)c(-c3ccncc3)c2c1 | 500 to 5000 nM | inhibition [2]: 11% |
| FC(F)(F)c1ccc2c(-c3ccnc(NCCCCN4CCCC4)n3)c(-c3cccc(Cl)c3)nn2c1 | 10 to 100 nM | – |
| CCN(CC)CCCCNc1nccc(-c2c(-c3ccc(F)c(Cl)c3)nn3cc(C(F)(F)F)ccc23)n1 | 10 to 100 nM | – |
| CN1CCN(CCCNc2nccc(-c3c(-c4ccc(F)c(Cl)c4)nn4cc(C(F)(F)F)ccc34)n2)CC1 | 10 to 100 nM | – |
| CCN(CC)CCCCNc1nccc(-c2c(-c3cccc(Cl)c3)nn3cc(C(F)(F)F)ccc23)n1 | 10 to 100 nM | – |
| FC(F)(F)c1ccc(-c2nn3cc(C(F)(F)F)ccc3c2-c2ccnc(NCCCN3CCOCC3)n2)cc1 | 1000 to 10000 nM | – |

Second part, led by results:

| IC50 [1] | SMILES | other results |
| --- | --- | --- |
| < 500 nM | Fc1ccc(-c2nn3ccccc3c2-c2ccnc(NCc3ccccn3)n2)cc1 | inhibition [2]: 87% |
| 100 to 1000 nM | Fc1ccc(-c2nn3cc(C(F)(F)F)ccc3c2-c2ccnc(NCCCN3CCOCC3)n2)cc1Cl | – |
| 10 to 100 nM | CCCN1CCN(CCNc2nccc(-c3c(-c4cccc(Cl)c4)nn4cc(C(F)(F)F)ccc34)n2)CC1 | – |
| 10 to 100 nM | CN(C)CCCNc1nccc(-c2c(-c3cccc(Cl)c3)nn3cc(C(F)(F)F)ccc23)n1 | – |
| 100 to 1000 nM | FC(F)(F)c1ccc2c(-c3ccnc(NCCN4CCCCC4)n3)c(-c3cccc(Cl)c3)nn2c1 | – |
| 100 to 1000 nM | Fc1ccc(-c2nn3cc(C(F)(F)F)ccc3c2-c2ccnc(NCCCN3CCCCC3)n2)cc1Cl | – |
| 1000 to 10000 nM | CN(C)CCCNc1nccc(-c2c(-c3ccc(C(F)(F)F)cc3)nn3cc(C(F)(F)F)ccc23)n1 | – |
| < 500 nM | Fc1ccc(-c2nn3ccccc3c2-c2ccnc(NCCc3cnc[nH]3)n2)cc1 | – |
| 10 to 100 nM | Fc1ccc(-c2nn3cc(C(F)(F)F)ccc3c2-c2ccnc(NCCN3CCOCC3)n2)cc1Cl | – |
| 10 to 100 nM | FC(F)(F)c1ccc2c(-c3ccnc(NCCCN4CCOCC4)n3)c(-c3cccc(Cl)c3)nn2c1 | – |
| 1000 to 10000 nM | CCCN(CCC)CCNc1nccc(-c2c(-c3ccc(C(F)(F)F)cc3)nn3cc(C(F)(F)F)ccc23)n1 | – |
| 100 to 1000 nM | CCN(CC)CCNc1nccc(-c2c(-c3cccc(Cl)c3)nn3cc(C(F)(F)F)ccc23)n1 | – |
| 100 to 1000 nM | CC(C)N(CCNc1nccc(-c2c(-c3ccc(F)c(Cl)c3)nn3cc(C(F)(F)F)ccc23)n1)C(C)C | – |
| < 500 nM | Fc1ccc(-c2nn3ccccc3c2-c2ccnc(NCc3cccnc3)c2)cc1 | IC50 [4]: 5000 to 50000 nM |
| < 500 nM | Cc1ccc(C)c(Oc2nccc(-c3c(-c4ccc(F)cc4)nn4cc(C(F)(F)F)ccc34)n2)c1 | – |
| < 500 nM | N#Cc1ccc2c(-c3ccnc(NC4CC4)n3)c(-c3ccc(F)cc3)nn2c1 | inhibition [2]: 52% |
| < 500 nM | Nc1ncccc1C(=O)OCc1ccn2nc(-c3ccc(F)cc3)c(-c3ccncc3)c2c1 | IC50 [4]: > 50000 nM |
| < 500 nM | Fc1ccc(-c2nn3ccccc3c2-c2ccncc2)cc1 | IC50 [4]: > 50000 nM; inhibition [2]: 65% |
| 10 to 100 nM | CCCN1CCN(CCNc2nccc(-c3c(-c4ccc(F)c(Cl)c4)nn4cc(C(F)(F)F)ccc34)n2)CC1 | – |
| < 500 nM | Fc1ccc(-c2nn3cc(C(F)(F)F)ccc3c2-c2ccnc(NC3CC3)n2)cc1 | inhibition [2]: 24% |
| 100 to 1000 nM | CCCN(CCC)CCNc1nccc(-c2c(-c3ccc(F)c(Cl)c3)nn3cc(C(F)(F)F)ccc23)n1 | – |
| 1000 to 10000 nM | FC(F)(F)c1ccc(-c2nn3cc(C(F)(F)F)ccc3c2-c2ccnc(NCCN3CCOCC3)n2)cc1 | – |
| 1000 to 10000 nM | FC(F)(F)c1ccc(-c2nn3cc(C(F)(F)F)ccc3c2-c2ccnc(NCCN3CCCC3)n2)cc1 | – |
